Conditions: 101.33 kPa, Liquid; for viscosity: Capillary tube (Ostwald / Ubbelohde) method; for mass density: Pycnometric method; for thermal conductivity: Hot wire method

CC(O)CO (stereo not drawn) [1,2-propanediol]
Conditions | mass density [kg/m3] | thermal conductivity [W/m/K] | viscosity [mPa·s]
297.25 K | – | – | 46.4
298.85 K | 1033 | – | –
299.1 K | – | 0.196 | –
302.55 K | – | – | 34
313.6 K | – | 0.195 | –
317.1 K | – | – | 16.4
318.05 K | 1018 | – | –
332.3 K | – | – | 8.75
332.9 K | – | 0.195 | –
339 K | 1003 | – | –
347.4 K | – | – | 5.26
352.3 K | – | 0.194 | –
359.4 K | 986.1 | – | –
362.05 K | – | – | 3.42
371.6 K | – | 0.193 | –
376.45 K | – | – | 2.34
380.95 K | 967.6 | – | –
391.05 K | – | – | 1.67
391.1 K | – | 0.192 | –
399.6 K | 951.2 | – | –
406.05 K | – | – | 1.27
411.4 K | – | 0.19 | –
420.2 K | 931.7 | – | –
420.85 K | – | – | 0.982
430.4 K | – | 0.187 | –
440.35 K | 912.2 | – | –
450.8 K | – | 0.183 | –

CC(O)COC(C)COC(C)CO (stereo not drawn) [2-[2-(2-hydroxypropoxy)propoxy]-1-propanol]
Conditions | mass density [kg/m3] | thermal conductivity [W/m/K] | viscosity [mPa·s]
294.82 K | – | – | 69.4
295.01 K | 1017 | – | –
298.1 K | – | 0.152 | –
313.05 K | 1003 | – | 23.6
326.1 K | – | 0.152 | –
333.1 K | 986.4 | – | 9.64
351.1 K | – | 0.15 | –
353.1 K | 969.9 | – | 4.85
372.15 K | 953.5 | – | 2.91
376.2 K | – | 0.148 | –
391.5 K | 936.4 | – | 1.91
399.4 K | – | 0.145 | –
411.35 K | 918.7 | – | 1.33
424.9 K | – | 0.14 | –
428.2 K | 903.3 | – | 1.03
449.6 K | – | 0.135 | –

OCCCOCCCO [4-oxa-1,7-heptanediol]
Conditions | mass density [kg/m3] | thermal conductivity [W/m/K] | viscosity [mPa·s]
297.42 K | – | – | 81.5
297.45 K | 1020 | – | –
298.2 K | – | 0.156 | –
309.8 K | – | 0.157 | –
313.05 K | 1008 | – | –
313.07 K | – | – | 29.8
316.9 K | – | 0.156 | –
333.1 K | 992.4 | – | 11.1
347.4 K | – | 0.156 | –
353.1 K | 976.1 | – | 5.24
363 K | – | 0.156 | –
372.25 K | 960.3 | – | 3
377.6 K | – | 0.155 | –
391.45 K | 943.1 | – | 1.9
391.6 K | – | 0.154 | –
405.7 K | – | 0.153 | –
408.35 K | 928.1 | – | 1.36
420.3 K | 916.9 | – | 1.1
420.6 K | – | 0.151 | –
428.3 K | 909.6 | – | 0.97
435.1 K | – | 0.149 | –

Source: the NIST ThermoML archive (doi:10.1021/je049960h)
